Where two headings read alike, the source gives them in different places. A value given as a limit tells only on which side of the number the result lay.

Holding throughout (type): cell-based, human
Data set [1] deals with A2780S. As to the kind of experiment: Inhibition of cell growth (cells counted on Coulter Counter after six days). On the procedure:
The experiment was conducted in triplicate in the manner described with respect to Table I.
A2780 cells were well-plated (35 mm disnes) and 24 hours later the cells were treated with cisplatin for one hour, washed out and then treated with 6 concentrations of from 1 μM to 100 μM increased in equal increments of a nucleoside analog in saline. Cells were then washed and incubated for six days. The cells were counted on a Coulter Counter and the experiment was done in triplicate.
(§1) Table VI includes EC50 data further exemplifying the invention. The data reported by Table VI was obtained by substantially the same procedure as that described with respect to Table III. In Table VI, “(C)” indicates continuous exposure, “(1 h)” and “(2 h)” indicate exposure for 1 hour and 2 hours; “HU” indicates hydroxyurea.

The subject of data set [2] is A2780DDP. Described as above. As for the experimental part: The experiment was conducted in triplicate in the manner described with respect to Table I. […]
as §1

The test system of another data set is HCT8DDP. The description is as above. Conditions: for EC50: HCT8-DDP, read-out: EC50. On the procedure: as §1
Another data set relates to HCT8S. The description is as above. Conditions: read-out: EC50. On the procedure: as §1
Another data set deals with HCF7S. As to the kind of experiment: Inhibition of cell growth, Table VI.
In another data set the test system is HCF-7 DDP. As to the kind of experiment: Inhibition of cell growth, Table VI. Conditions: for EC50: HCF-7 DDP. As for the experimental part:
as §1

Another data set relates to K562-araC. As to the kind of experiment: Inhibition of cell growth, Table VI. The note with it: K562-araC. On the procedure:
as §1

The test system of another data set is K562S. The experiment in a line: Inhibition of cell growth, Table VI. As for the experimental part: as §1
A further data set concerns K562-DDP. The experiment in a line: Inhibition of cell growth, Table VI. Conditions: K562-DDP.
Another data set concerns K562-VP16. The experiment in a line: Inhibition of cell growth, Table VI.
A further data set concerns CEMS. The experiment in a line: Cytotoxicity by continuous exposure in CEM cells. On the procedure: (§2) There was an increase in DHFR enzyme activity (11.07-fold) due to an eight-fold increase in DHFR gene amplification and expression in CEM/MTX cells. There was also a corresponding 2-fold increase in thymidine kinase (TK) enzyme activity and TK gene expression in CEM/MTX cells. […] CEM cells untreated with nucleoside analog were the controls (100%). The experiment was performed three separate times in duplicate.

A further data set deals with CEMDDP. As to the kind of experiment: Cytotoxicity by continuous exposure in CEM cells.
The next data set relates to CEMMTX. The experiment in a line: Cytotoxicity by continuous exposure in CEM cells. As for the experimental part: CEM cells were made 15.8-fold resistant to methotrexate (MTX) by weekly (2 hr) pulses and cloned in soft agar. The optimal growth requirements for the CEMS/S and CEM/MTX for folinic acid cells were 2 nM and 10 nM. If the cells were grown in higher concentrations of folinic acid (10^−7 M), both cell lines were correspondingly more resistant to MTX. In contrast, fluoropyrimidine cytotoxicity was enhanced in both cell lines with increasing concentrations of folinic acid from 10^−7 M to 10^−6 M. At concentrations of folinic acid that are not optimal for cell growth, both CEM cell lines are hypersensitive to fluoropyrimidines. In addition, CEM/MTX cells are more hypersensitive to fluoropyrimidines than CEM/S cells at (10^−8 M) folinic acid or lower concentrations.
as §2

Data set [3] relates to A2780S. As to the kind of experiment: Dual labeled (14C/3H) DNA synthesis and degradation in response to cisplatin. On the procedure: (§3) A dual labeled (^14C/^3H) experiment was designed to measure simultaneously DNA synthesis and degradation in response to cisplatin. […] A2780S cells respond to cisplatin with a modest degradation (10%) of (^14C) DNA over 3 hrs. In contrast, A2780DDP degradation 40.5% of the (^14C) DNA in 3 hrs. […] Transplatin at equimolar concentrations (20 μM) had no influence on DNA synthesis or degradation in A2780 cells.

The test system of data set [4] is A2780DDP. The experiment in a line: Dual labeled (14C/3H) DNA synthesis and degradation in response to cisplatin; incorporation of labelled nucleoside analogs. From the text:
A dual labeled (^14C/^3H) experiment was designed to measure simultaneously DNA synthesis and degradation in response to cisplatin.

The test system of the next data set is A2780 cells. The experiment in a line: Dual labeled (14C/3H) DNA synthesis and degradation. The note with it: 20 μM. As for the experimental part:
as §3

The mark [5] stands for this setting: cisplatin 20 μM, treatment time 0 min.
[6] abbreviates: cisplatin 20 μM, treatment time 45 min.
Setting [7] is: cisplatin 20 μM, treatment time 90 min.
Where [8] appears, read: cisplatin 20 μM, treatment time 180 min.

With `Cc1cn([C@H]2C[C@H](N=[N+]=[N-])[C@@H](CO)O2)c(=O)[nH]c1=O` [AZT, 3′ azido-2′, 3′ dideoxythymidine], the EC50 in the data set with A2780S [1] (A2780S, (C) continuous exposure, read-out: EC50) is 10 µM; with A2780S [1] (continuous exposure, proliferation during 6 days, mean + SD, read-out: EC50 A2780S), 10 µM; with A2780DDP [2] (A2780 DDP, (C) continuous exposure, read-out: EC50), 510 µM; in the data set with A2780DDP [2] (continuous exposure, proliferation during 6 days, mean + SD, read-out: EC50 A2780DDP), 510 µM; in the data set with HCT8DDP ((C) continuous exposure) it was 11 µM; in the data set on HCT8S ((C) continuous exposure) it was 5.5 µM. The EC50 in the data set on HCF7S ((C) continuous exposure) was 65 µM; in the data set on HCF-7 DDP ((C) continuous exposure) it was 10 µM; in the data set with K562-araC ((C) continuous exposure), 70 µM; with K562S ((C) continuous exposure), 125 µM; with K562-DDP ((C) continuous exposure), 150 µM; with K562-VP16 ((C) continuous exposure) it was 200 µM. In addition, the EC50 entry with CEMS (CEMS, continuous exposure) is “N.E.**”; with CEMDDP, “N.E.**”; in the data set with CEMMTX (CEM/MTX cells, continuous exposure (1-160 μM)), 25 µM. In addition, the cytotoxicity result in the data set on CEMS (CEM/S cells, continuous exposure up to 160 μM) is “minimal cytotoxicity”. Besides, the “increased incorporation of (3H) AZT into TCA material” value in the data set on A2780S [3] (A2780S, in response to cisplatin 20 μM) turned out to be 18.8%. Besides, the “3H-AZT/DNA A2780S” value with A2780S [3] (setting [5]) stood at 7.79; with A2780S [3] (setting [6]), 6.27; in the data set with A2780S [3] (setting [7]) it was 7.23; with A2780S [3] (setting [8]) it was 9.25. Also, the “Incorporation of labelled nucleoside analog into macromolecules” value in the data set with A2780DDP [4] (A2780DDP, 0 min after cisplatin (20 μM) treatment) is recorded as 26.96; with A2780DDP [4] (A2780DDP, 45 min after cisplatin (20 μM) treatment) it was 31.62; in the data set with A2780DDP [4] (A2780DDP, 90 min after cisplatin (20 μM) treatment), 32.31; in the data set with A2780DDP [4] (A2780DDP, 180 min after cisplatin (20 μM) treatment), 37.96. Moreover, the “3H-AZT/DNA A2780DDP” value with A2780DDP [4] (setting [5]) was 26.96; in the data set with A2780DDP [4] (setting [6]), 31.62; in the data set with A2780DDP [4] (setting [7]), 32.31; in the data set on A2780DDP [4] (setting [8]), 37.96.
Consider `N.N.[Cl][Pt][Cl]` [Cisplatin, cisplatin], for which the half-maximal effective concentration (EC50) in the data set on A2780S [1] (A2780S, (1h) exposure, read-out: EC50) is 7 µM; in the data set on A2780S [1] (treatment time 1 hr, proliferation during 6 days, mean + SD, read-out: EC50 A2780S), 7 µM; with A2780DDP [2] (A2780 DDP, (1h) exposure, read-out: EC50), 90 µM; in the data set with A2780DDP [2] (treatment time 1 hr, proliferation during 6 days, mean + SD, read-out: EC50 A2780DDP), 90 µM; in the data set on HCT8DDP ((1h) exposure), 100 µM; with HCT8S ((1h) exposure) it was 30 µM. The EC50 in the data set on HCF7S ((1h) exposure) stood at 15 µM; in the data set on HCF-7 DDP ((1h) exposure), 35 µM; in the data set with K562-araC ((1h) exposure), 25 µM; in the data set on K562S ((1h) exposure), 6 µM; in the data set with K562-DDP ((1h) exposure), 15 µM; with K562-VP16 ((1h) exposure), 15 µM. Further, the “Ratio (degree of resistance or cross-resistance)” value in the data set with A2780DDP [2] (A2780DDP vs A2780S EC50, treatment time 1 hr) was “+12.8”. The “fold resistance, cisplatin resistant vs sensitive A2780 cells” value in the data set on A2780DDP [2] (A2780 ovarian carcinoma cells) was more than 12 fold. Further, the “fold resistance, cispt resistant vs sensitive HCT8 cells” value in the data set with HCT8DDP (HCT8 human colon cancer cells) turned out to be 2.7 fold. The “fold resistance, cispt resistant vs sensitive MCF7 cells” value with HCF-7 DDP (MCF7 human breast cancer cells) is 2.3 fold. Besides, the “degradation of (14C) DNA” value with A2780S [3] (A2780S, cisplatin 20 μM, over 3 hrs) came out at 10%; in the data set on A2780DDP [4] (A2780DDP, cisplatin 20 μM, in 3 hrs), 40.5%. Besides, the “14C-Tdr/DNA A2780S” value in the data set on A2780S [3] (setting [5]) is reported as 6.49; in the data set on A2780S [3] (setting [6]), 6.21; in the data set on A2780S [3] (setting [7]), 5.71; with A2780S [3] (setting [8]) it was 6.06. Besides, the “14C-Tdr/DNA A2780DDP” value in the data set with A2780DDP [4] (setting [5]) is given as 17.78; in the data set with A2780DDP [4] (setting [6]) it was 14.44; in the data set with A2780DDP [4] (setting [7]), 12.59; with A2780DDP [4] (setting [8]) it was 10.57.
Regarding `N.N.[Cl][Pt+2][Cl]` [Transplatin], the “influence on DNA synthesis or degradation” value in the data set with A2780 cells was “no influence”.
With `CN(Cc1cnc2nc(N)nc(N)c2n1)c1ccc(C(=O)N[C@@H](CCC(=O)O)C(=O)O)cc1` [methotrexate], in the data set with CEMMTX (CEM cells made resistant by weekly (2 hr) pulses), the “fold resistance of CEM/MTX cells” value was 15.8 fold.

Values taken from patent US20020055470A1, “Circumvention of human tumor drug resistance” (CITY OF HOPE, priority 1987, published 2002).
